From patent US12281121B2, “N-containing heteroaryl derivative and pharmaceutical composition comprising same as active ingredient for prevention or treatment of cancer” (VORONOI Inc., priority 2019, dated 2025)

How the values were obtained:
Test in all cases: ScanMAX Kinase analysis panel (DiscoverX)
Assay type in all cases: binding
SRC = molecular target: T1, SRC (Homo sapiens, UniProt P12931); conditions: read-out: adjusted percentage (% control)
T1 construct: purchased DiscoverX ScanMAX Kinase analysis panel
T1 sequence (P12931 whole entry): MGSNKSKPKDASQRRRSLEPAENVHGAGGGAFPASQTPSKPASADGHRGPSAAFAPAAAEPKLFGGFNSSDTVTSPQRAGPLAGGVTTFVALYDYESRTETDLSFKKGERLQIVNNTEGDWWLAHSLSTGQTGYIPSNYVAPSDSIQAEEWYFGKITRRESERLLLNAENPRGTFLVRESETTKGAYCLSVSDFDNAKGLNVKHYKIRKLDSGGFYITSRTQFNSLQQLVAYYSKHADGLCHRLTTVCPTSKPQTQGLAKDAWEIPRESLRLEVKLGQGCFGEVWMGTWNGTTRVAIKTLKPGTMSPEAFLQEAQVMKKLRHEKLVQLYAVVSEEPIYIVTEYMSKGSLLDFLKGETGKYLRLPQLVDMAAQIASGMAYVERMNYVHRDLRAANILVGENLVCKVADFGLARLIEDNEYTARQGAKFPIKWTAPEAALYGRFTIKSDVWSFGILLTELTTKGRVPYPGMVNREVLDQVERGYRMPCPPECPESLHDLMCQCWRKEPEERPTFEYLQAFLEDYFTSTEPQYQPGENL
Procedure: (§1) The following experiment was performed in order to evaluate the inhibitory activity of the compound according to the present invention against more enzymes. Specifically, for Examples 1 and 3 selected among the Example compounds of the present invention, the enzyme (kinase) selectivity was set to be measured by commissioning DiscoverX, and an experiment was conducted using a ScanMAX™ Kinase analysis panel. In this case, the concentration of the drug treated with the enzyme was set to 1 μM in DMSO, the adjusted percentage (% control) was determined in the same manner as in the following Equation 1, and the results are shown in the following Table 3. (Example compound−Positive control)/(Negative control−Positive control)×100 [Equation 1]
(§2) In addition, the enzyme selectivity of the present invention was determined to be active against the corresponding enzyme when the adjusted percentage was <35% (that is, less than 35%).

FLT3(R834Q) = molecular target: T2, FLT3(R834Q) (Homo sapiens, UniProt P36888, R834Q); conditions: read-out: adjusted percentage (% control)
T2 construct: purchased DiscoverX ScanMAX Kinase analysis panel
Procedure: as §1, §2

[1] = molecular target: T3, JAK1(JH1domain-catalytic) (Homo sapiens, UniProt P23458); conditions: read-out: adjusted percentage (% control)
T3 construct: JAK1(JH1domain-catalytic); purchased DiscoverX ScanMAX Kinase analysis panel
Procedure: as §1, §2

KIT(D816V) = molecular target: T4, KIT(D816V) (Homo sapiens, UniProt P10721, D816V); conditions: read-out: adjusted percentage (% control)
T4 construct: purchased DiscoverX ScanMAX Kinase analysis panel
T4 sequence (P10721 26-976 D816V): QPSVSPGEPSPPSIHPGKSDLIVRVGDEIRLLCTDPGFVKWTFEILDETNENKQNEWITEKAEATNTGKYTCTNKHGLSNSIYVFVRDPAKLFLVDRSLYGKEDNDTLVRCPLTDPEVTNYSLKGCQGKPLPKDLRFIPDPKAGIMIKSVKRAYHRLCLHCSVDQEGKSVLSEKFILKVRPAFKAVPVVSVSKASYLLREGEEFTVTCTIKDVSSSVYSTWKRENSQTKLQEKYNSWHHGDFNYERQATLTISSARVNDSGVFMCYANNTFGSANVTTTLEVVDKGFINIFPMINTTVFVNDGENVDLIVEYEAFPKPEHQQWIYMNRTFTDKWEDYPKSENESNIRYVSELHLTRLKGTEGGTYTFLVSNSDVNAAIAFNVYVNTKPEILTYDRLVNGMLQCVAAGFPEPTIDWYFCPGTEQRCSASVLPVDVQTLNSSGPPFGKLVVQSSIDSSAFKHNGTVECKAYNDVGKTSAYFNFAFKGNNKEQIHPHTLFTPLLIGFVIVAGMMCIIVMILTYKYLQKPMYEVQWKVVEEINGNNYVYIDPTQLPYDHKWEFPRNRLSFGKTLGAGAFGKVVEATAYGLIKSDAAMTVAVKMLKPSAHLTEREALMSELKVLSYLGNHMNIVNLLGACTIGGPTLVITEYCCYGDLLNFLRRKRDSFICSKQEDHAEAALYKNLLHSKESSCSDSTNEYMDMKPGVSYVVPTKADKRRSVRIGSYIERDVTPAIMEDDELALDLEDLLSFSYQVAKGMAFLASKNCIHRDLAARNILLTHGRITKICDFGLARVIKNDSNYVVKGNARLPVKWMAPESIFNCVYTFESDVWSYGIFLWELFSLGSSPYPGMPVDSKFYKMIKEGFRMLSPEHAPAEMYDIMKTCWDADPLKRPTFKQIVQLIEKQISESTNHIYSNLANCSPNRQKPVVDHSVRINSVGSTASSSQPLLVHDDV
Procedure: as §1, §2

PDGFRB = molecular target: T5, PDGFRB (Homo sapiens, UniProt P09619); conditions: read-out: adjusted percentage (% control)
T5 construct: purchased DiscoverX ScanMAX Kinase analysis panel
Procedure: as §1, §2

[2] = molecular target: T6, ABL1(T315I)-phosphorylated (Homo sapiens, UniProt P00519, T315I); conditions: read-out: adjusted percentage (% control)
T6 construct: purchased DiscoverX
Procedure: as §1, §2

AURKC = molecular target: T7, AURKC (Homo sapiens, UniProt Q9UQB9); conditions: read-out: adjusted percentage (% control)
T7 construct: purchased DiscoverX
Procedure: as §1, §2

FRK = molecular target: T8, FRK (Homo sapiens, UniProt P42685); conditions: read-out: adjusted percentage (% control)
T8 construct: purchased DiscoverX ScanMAX Kinase analysis panel
Procedure: as §1, §2

MERTK = molecular target: T9, MERTK (Homo sapiens, UniProt Q12866); conditions: read-out: adjusted percentage (% control)
T9 construct: purchased DiscoverX ScanMAX Kinase analysis panel
Procedure: as §1, §2

BTK = molecular target: T10, BTK (Homo sapiens, UniProt Q06187); conditions: read-out: adjusted percentage (% control)
T10 construct: purchased DiscoverX
Procedure: as §1, §2

AMPK-alpha1 = molecular target: T11, AMPK-alpha1 (Homo sapiens, UniProt Q13131); conditions: read-out: adjusted percentage (% control)
T11 construct: purchased DiscoverX
T11 sequence (Q13131 whole entry): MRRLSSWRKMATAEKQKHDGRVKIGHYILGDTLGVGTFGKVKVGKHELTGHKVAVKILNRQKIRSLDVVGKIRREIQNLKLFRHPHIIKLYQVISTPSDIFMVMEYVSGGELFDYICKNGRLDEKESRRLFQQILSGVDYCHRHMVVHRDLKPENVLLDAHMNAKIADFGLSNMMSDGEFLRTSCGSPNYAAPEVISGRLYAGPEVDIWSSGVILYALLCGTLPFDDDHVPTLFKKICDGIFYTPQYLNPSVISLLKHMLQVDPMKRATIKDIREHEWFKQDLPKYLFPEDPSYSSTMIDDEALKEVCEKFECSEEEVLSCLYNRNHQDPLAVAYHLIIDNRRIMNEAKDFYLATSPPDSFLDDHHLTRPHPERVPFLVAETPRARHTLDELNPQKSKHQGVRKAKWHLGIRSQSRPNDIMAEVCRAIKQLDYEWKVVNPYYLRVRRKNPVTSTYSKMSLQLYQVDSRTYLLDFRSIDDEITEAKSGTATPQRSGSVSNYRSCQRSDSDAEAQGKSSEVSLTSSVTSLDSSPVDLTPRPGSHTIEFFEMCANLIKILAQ
Procedure: as §1, §2

GCN2(Kin.Dom.2, S808G) = molecular target: T12, GCN2(Kin.Dom.2, S808G) (Homo sapiens, UniProt Q9P2K8, S808G); conditions: read-out: adjusted percentage (% control)
T12 construct: GCN2(Kin.Dom.2,S808G); purchased DiscoverX ScanMAX Kinase analysis panel
Procedure: as §1, §2

FLT3(ITD) = conditions: 1 μM
Procedure: as §1, §2

AXL = molecular target: T13, AXL (Homo sapiens, UniProt P30530); conditions: read-out: adjusted percentage (% control)
T13 construct: purchased DiscoverX
Procedure: as §1, §2

MEK3 = molecular target: T14, MEK3 (Homo sapiens, UniProt P46734); conditions: read-out: adjusted percentage (% control)
T14 construct: purchased DiscoverX ScanMAX Kinase analysis panel
Procedure: as §1, §2

FLT3-autoinhibited = molecular target: T15, FLT3-autoinhibited (Homo sapiens, UniProt P36888); conditions: read-out: adjusted percentage (% control)
T15 construct: purchased DiscoverX ScanMAX Kinase analysis panel
Procedure: as §1, §2

RET(V804L) = molecular target: T16, RET(V804L) (Homo sapiens, UniProt P07949, V804L); conditions: read-out: adjusted percentage (% control)
T16 construct: purchased DiscoverX ScanMAX Kinase analysis panel
Procedure: as §1, §2

DDR2 = molecular target: T17, DDR2 (Homo sapiens, UniProt Q16832); conditions: read-out: adjusted percentage (% control)
T17 construct: purchased DiscoverX
Procedure: as §1, §2

MEK2 = molecular target: T18, MEK2 (Homo sapiens, UniProt P36507); conditions: read-out: adjusted percentage (% control)
T18 construct: purchased DiscoverX ScanMAX Kinase analysis panel
Procedure: as §1, §2

FLT3(K663Q) = molecular target: T19, FLT3(K663Q) (Homo sapiens, UniProt P36888, K663Q); conditions: read-out: adjusted percentage (% control)
T19 construct: purchased DiscoverX ScanMAX Kinase analysis panel
Procedure: as §1, §2

YSK4 = molecular target: T20, YSK4 (Homo sapiens, UniProt Q56UN5); conditions: read-out: adjusted percentage (% control)
T20 construct: purchased DiscoverX ScanMAX Kinase analysis panel
Procedure: as §1, §2

[3] = molecular target: T21, ABL1(M351T)-phosphorylated (Homo sapiens, UniProt P00519, M351T); conditions: read-out: adjusted percentage (% control)
T21 construct: purchased DiscoverX
Procedure: as §1, §2

BLK = molecular target: T22, BLK (Homo sapiens, UniProt P51451); conditions: read-out: adjusted percentage (% control)
T22 construct: purchased DiscoverX
Procedure: as §1, §2

AURKA = molecular target: T23, AURKA (Homo sapiens, UniProt O14965); conditions: read-out: adjusted percentage (% control)
T23 construct: purchased DiscoverX
Procedure: as §1, §2

ICK = molecular target: T24, ICK (Homo sapiens, UniProt Q9UPZ9); conditions: read-out: adjusted percentage (% control)
T24 construct: purchased DiscoverX ScanMAX Kinase analysis panel
T24 sequence (Q9UPZ9 whole entry): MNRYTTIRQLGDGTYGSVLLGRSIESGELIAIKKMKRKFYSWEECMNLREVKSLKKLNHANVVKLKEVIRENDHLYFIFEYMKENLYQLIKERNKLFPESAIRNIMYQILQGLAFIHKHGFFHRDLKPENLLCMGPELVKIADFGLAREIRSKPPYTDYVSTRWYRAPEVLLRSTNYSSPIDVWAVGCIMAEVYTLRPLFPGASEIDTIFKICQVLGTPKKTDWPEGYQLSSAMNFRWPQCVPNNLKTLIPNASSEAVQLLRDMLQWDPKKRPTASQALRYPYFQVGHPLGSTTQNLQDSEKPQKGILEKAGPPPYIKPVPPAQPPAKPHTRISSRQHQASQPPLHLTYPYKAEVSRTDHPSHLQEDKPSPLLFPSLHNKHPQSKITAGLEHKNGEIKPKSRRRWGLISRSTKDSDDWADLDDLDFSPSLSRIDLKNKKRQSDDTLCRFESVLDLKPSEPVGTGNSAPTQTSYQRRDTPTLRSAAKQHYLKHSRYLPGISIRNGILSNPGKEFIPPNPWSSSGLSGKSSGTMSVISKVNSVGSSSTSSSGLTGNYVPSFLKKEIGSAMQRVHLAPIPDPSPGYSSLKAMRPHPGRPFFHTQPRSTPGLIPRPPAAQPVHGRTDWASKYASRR
Procedure: as §1, §2

[4] = molecular target: T25, JAK2(JH1domain-catalytic) (Homo sapiens, UniProt O60674); conditions: read-out: adjusted percentage (% control)
T25 construct: JAK2(JH1domain-catalytic); purchased DiscoverX ScanMAX Kinase analysis panel
Procedure: as §1, §2

TRKA = molecular target: T26, TRKA (Homo sapiens, UniProt P04629); conditions: read-out: adjusted percentage (% control)
T26 construct: purchased DiscoverX ScanMAX Kinase analysis panel
Procedure: as §1, §2

EGFR(L858R, T790M) = molecular target: T27, EGFR(L858R, T790M) (Homo sapiens, UniProt P00533, L858R/T790M); conditions: read-out: adjusted percentage (% control)
T27 construct: purchased DiscoverX
Procedure: as §1, §2

YES = molecular target: T28, YES (Homo sapiens, UniProt P07947); conditions: read-out: adjusted percentage (% control)
T28 construct: purchased DiscoverX ScanMAX Kinase analysis panel
Procedure: as §1, §2

EPHB6 = molecular target: T29, EPHB6 (Homo sapiens, UniProt O15197); conditions: read-out: adjusted percentage (% control)
T29 construct: purchased DiscoverX ScanMAX Kinase analysis panel
T29 sequence (O15197 32-1021): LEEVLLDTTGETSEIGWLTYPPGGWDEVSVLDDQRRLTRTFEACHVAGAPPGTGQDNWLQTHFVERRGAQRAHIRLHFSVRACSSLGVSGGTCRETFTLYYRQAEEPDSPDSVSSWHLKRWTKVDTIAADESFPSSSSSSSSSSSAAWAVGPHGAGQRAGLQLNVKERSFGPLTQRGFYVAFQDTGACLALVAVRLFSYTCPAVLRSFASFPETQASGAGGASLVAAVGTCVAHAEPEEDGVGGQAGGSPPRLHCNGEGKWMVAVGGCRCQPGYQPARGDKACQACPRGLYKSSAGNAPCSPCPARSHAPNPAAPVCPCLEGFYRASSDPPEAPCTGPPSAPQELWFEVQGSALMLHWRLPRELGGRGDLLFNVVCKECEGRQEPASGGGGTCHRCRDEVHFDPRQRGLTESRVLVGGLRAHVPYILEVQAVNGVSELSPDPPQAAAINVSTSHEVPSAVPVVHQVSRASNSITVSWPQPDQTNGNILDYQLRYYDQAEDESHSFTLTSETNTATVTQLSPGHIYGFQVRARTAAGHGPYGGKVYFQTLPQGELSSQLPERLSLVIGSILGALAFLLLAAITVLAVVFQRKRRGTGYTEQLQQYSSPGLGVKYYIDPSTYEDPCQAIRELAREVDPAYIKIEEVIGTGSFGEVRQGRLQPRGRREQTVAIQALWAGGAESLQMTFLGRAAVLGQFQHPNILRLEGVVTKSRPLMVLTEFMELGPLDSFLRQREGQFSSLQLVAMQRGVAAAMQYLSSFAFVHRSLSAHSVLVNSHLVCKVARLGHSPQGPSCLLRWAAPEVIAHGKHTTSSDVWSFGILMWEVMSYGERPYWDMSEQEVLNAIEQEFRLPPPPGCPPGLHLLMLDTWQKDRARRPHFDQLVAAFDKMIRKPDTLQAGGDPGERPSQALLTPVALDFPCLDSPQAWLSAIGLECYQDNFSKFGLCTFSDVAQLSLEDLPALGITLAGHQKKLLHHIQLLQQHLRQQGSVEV
Procedure: as §1, §2

FLT3(D835H) = molecular target: T30, FLT3(D835H) (Homo sapiens, UniProt P36888, D835H); conditions: read-out: adjusted percentage (% control)
T30 construct: purchased DiscoverX ScanMAX Kinase analysis panel
Procedure: as §1, §2

ITK = molecular target: T31, ITK (Homo sapiens, UniProt Q08881); conditions: read-out: adjusted percentage (% control)
T31 construct: purchased DiscoverX ScanMAX Kinase analysis panel
T31 sequence (Q08881 whole entry): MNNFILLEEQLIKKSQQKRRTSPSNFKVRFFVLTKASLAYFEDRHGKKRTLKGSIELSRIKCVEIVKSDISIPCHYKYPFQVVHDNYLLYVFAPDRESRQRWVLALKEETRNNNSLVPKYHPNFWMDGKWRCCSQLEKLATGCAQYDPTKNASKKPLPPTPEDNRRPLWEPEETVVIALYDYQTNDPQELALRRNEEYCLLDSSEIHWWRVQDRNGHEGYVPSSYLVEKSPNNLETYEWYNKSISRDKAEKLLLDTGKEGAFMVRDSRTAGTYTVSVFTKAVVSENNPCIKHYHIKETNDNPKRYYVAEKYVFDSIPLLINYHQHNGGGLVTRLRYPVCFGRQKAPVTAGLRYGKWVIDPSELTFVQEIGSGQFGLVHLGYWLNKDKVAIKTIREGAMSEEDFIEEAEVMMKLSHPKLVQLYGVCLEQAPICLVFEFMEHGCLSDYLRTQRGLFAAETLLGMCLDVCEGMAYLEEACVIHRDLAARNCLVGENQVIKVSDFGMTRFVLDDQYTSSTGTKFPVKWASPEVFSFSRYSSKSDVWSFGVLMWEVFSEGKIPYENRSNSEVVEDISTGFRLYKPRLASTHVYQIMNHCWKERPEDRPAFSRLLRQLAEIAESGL
Procedure: as §1, §2

RET(V804M) = molecular target: T32, RET(V804M) (Homo sapiens, UniProt P07949, V804M); conditions: read-out: adjusted percentage (% control)
T32 construct: purchased DiscoverX ScanMAX Kinase analysis panel
Procedure: as §1, §2

RET = molecular target: T33, RET (Homo sapiens, UniProt P07949); conditions: read-out: adjusted percentage (% control)
T33 construct: purchased DiscoverX ScanMAX Kinase analysis panel
Procedure: as §1, §2

CSNK2A2 = molecular target: T34, CSNK2A2 (Homo sapiens, UniProt P19784); conditions: read-out: adjusted percentage (% control)
T34 construct: purchased DiscoverX
Procedure: as §1, §2

RIOK3 = molecular target: T35, RIOK3 (Homo sapiens, UniProt O14730); conditions: read-out: adjusted percentage (% control)
T35 construct: purchased DiscoverX ScanMAX Kinase analysis panel
T35 sequence (O14730 whole entry): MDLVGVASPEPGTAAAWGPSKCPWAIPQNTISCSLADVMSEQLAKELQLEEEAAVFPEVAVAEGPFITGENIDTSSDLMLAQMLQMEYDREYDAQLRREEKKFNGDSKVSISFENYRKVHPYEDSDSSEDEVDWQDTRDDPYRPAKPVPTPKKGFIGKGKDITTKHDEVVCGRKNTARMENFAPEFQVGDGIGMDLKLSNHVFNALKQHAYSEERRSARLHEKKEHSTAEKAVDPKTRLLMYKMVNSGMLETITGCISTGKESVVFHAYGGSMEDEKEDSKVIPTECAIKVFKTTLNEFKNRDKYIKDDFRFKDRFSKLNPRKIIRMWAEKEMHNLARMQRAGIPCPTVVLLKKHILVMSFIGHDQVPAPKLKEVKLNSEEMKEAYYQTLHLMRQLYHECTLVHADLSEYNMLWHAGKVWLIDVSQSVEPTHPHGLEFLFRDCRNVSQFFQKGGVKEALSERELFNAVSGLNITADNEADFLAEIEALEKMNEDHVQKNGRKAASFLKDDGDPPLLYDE
Procedure: as §1, §2

SMILES: COc1ccc(CN2C3CC2CN(c2ccc(-c4nc(Nc5cc(C)[nH]n5)c5ccccc5n4)cn2)C3)cn1 [Example 3, 2-(6-(6-((6-methoxypyridin-3-yl)methyl)-3,6-diazabicyclo [3.1.1]heptan-3-yl)pyridin-3-yl)-N-(5-methyl-1H-pyrazol-3-yl)quinazolin-4-amine]
- remaining binding at 1 µM (SRC): 0%
- remaining binding at 1 µM (FLT3(R834Q)): 9.1%
- remaining binding at 1 µM [1]: 9.7%
- remaining binding at 1 µM (KIT(D816V)): 6.5%
- remaining binding at 1 µM (PDGFRB): 2.7%
- remaining binding at 1 µM [2]: 3.2%
- remaining binding at 1 µM (AURKC): 21%
- remaining binding at 1 µM (FRK): 34%
- remaining binding at 1 µM (MERTK): 6.2%
- remaining binding at 1 µM (BTK): 16%
- remaining binding at 1 µM (AMPK-alpha1): 33%
- remaining binding at 1 µM (GCN2(Kin.Dom.2, S808G)): 0.2%
- adjusted percentage (% control) (FLT3(ITD)): 1.2%
- remaining binding at 1 µM (AXL): 0%
- remaining binding at 1 µM (MEK3): 4.9%
- remaining binding at 1 µM (FLT3-autoinhibited): 11%
- remaining binding at 1 µM (RET(V804L)): 0.4%
- remaining binding at 1 µM (DDR2): 30%
- remaining binding at 1 µM (MEK2): 17%
- remaining binding at 1 µM (FLT3(K663Q)): 0.1%
- remaining binding at 1 µM (YSK4): 5%
- remaining binding at 1 µM [3]: 15%
- remaining binding at 1 µM (BLK): 0.05%
- remaining binding at 1 µM (AURKA): 2.2%
- remaining binding at 1 µM (ICK): 28%
- remaining binding at 1 µM [4]: 0%
- remaining binding at 1 µM (TRKA): 0%
- remaining binding at 1 µM (EGFR(L858R, T790M)): 6.6%
- remaining binding at 1 µM (YES): 3.8%
- remaining binding at 1 µM (EPHB6): 4.8%
- remaining binding at 1 µM (FLT3(D835H)): 2.7%
- remaining binding at 1 µM (ITK): 1.6%
- remaining binding at 1 µM (RET(V804M)): 0%
- remaining binding at 1 µM (RET): 0%
- remaining binding at 1 µM (CSNK2A2): 0.3%
- remaining binding at 1 µM (RIOK3): 30%

SMILES: COc1ccc(CN2C3CC2CN(c2ccc(-c4nc(Nc5cc(C)[nH]n5)c5occc5n4)cn2)C3)cn1 [Example 1, 2-(6-(6-((6-methoxypyridin-3-yl)methyl)-3,6-diazabicyclo[3.1.1]heptan-3-yl)pyridin-3-yl)-N-(5-methyl-1H-pyrazol-3-yl)furo[3,2-d]pyrimidin-4-amine]
- remaining binding at 1 µM (SRC): 0.7%
- remaining binding at 1 µM (FLT3(R834Q)): 23%
- remaining binding at 1 µM [1]: 15%
- remaining binding at 1 µM (KIT(D816V)): 32%
- remaining binding at 1 µM (PDGFRB): 15%
- remaining binding at 1 µM [2]: 19%
- remaining binding at 1 µM (AURKC): 15%
- remaining binding at 1 µM (FRK): 18%
- remaining binding at 1 µM (MERTK): 34%
- remaining binding at 1 µM (BTK): 17%
- remaining binding at 1 µM (AMPK-alpha1): 26%
- remaining binding at 1 µM (GCN2(Kin.Dom.2, S808G)): 8%
- adjusted percentage (% control) (FLT3(ITD)): 4.9%
- remaining binding at 1 µM (AXL): 1.2%
- remaining binding at 1 µM (MEK3): 27%
- remaining binding at 1 µM (FLT3-autoinhibited): 9.8%
- remaining binding at 1 µM (RET(V804L)): 1.1%
- remaining binding at 1 µM (DDR2): 16%
- remaining binding at 1 µM (MEK2): 24%
- remaining binding at 1 µM (FLT3(K663Q)): 2.2%
- remaining binding at 1 µM (YSK4): 6.2%
- remaining binding at 1 µM [3]: 16%
- remaining binding at 1 µM (BLK): 1.4%
- remaining binding at 1 µM (AURKA): 4.1%
- remaining binding at 1 µM (ICK): 33%
- remaining binding at 1 µM [4]: 0.1%
- remaining binding at 1 µM (TRKA): 0%
- remaining binding at 1 µM (EGFR(L858R, T790M)): 6.9%
- remaining binding at 1 µM (YES): 11%
- remaining binding at 1 µM (EPHB6): 2.6%
- remaining binding at 1 µM (FLT3(D835H)): 6.7%
- remaining binding at 1 µM (ITK): 2%
- remaining binding at 1 µM (RET(V804M)): 0%
- remaining binding at 1 µM (RET): 0%
- remaining binding at 1 µM (CSNK2A2): 0%
- remaining binding at 1 µM (RIOK3): 13%
